Measurements taken from patent publication US20260297081A1, “COMPOUNDS AND METHODS OF TREATING CANCERS” (Cullgen Inc., priority 2023, published 2026).

Key:
Assay type in all cases: cell-based
[1] = system: T47D cells; test: Anti-proliferation (viability) of ER+ breast cancer T47D cells, 6 days (Table 7, FIG. 2B); settings: Homo sapiens, 144 h; T47D cells, 6 days, 10-point serial dilution; read-out: GI IC50 in T47D
Summary of the method: (§1)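 Cells were exposed to heterobifunctional compounds across a 10-point serial dilution, for 3 days with Calu-1 and 6 days with T47D. A negative control was included that keeps the DDB1 ligand and linker but carries a modified warhead that impairs CDK4 binding.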

[2] = system: MCF7 cells; test: Anti-proliferation (viability) of MCF7 cells (Table 7, FIG. 2B); settings: Homo sapiens, MCF7, MCF7 cells, 3-6 days, 10-point serial dilution; read-out: GI IC50 in MCF-7
[3] = target: CDK4 (Homo sapiens, UniProt P11802+Q16531); test: CDK4 percentage degradation in Calu-1 cells (Table 6); set-up: Cells that express cyclin D1-3 and CDK4/6 proteins were treated with heterobifunctional compounds; endogenous in cells; host or cells: Calu-1; settings: 16 hours; for inhibition at 0.04 µM: 40 nM; for inhibition at 0.2 µM: 200 nM
Chain of CDK4 (P11802 2-303 limits assumed): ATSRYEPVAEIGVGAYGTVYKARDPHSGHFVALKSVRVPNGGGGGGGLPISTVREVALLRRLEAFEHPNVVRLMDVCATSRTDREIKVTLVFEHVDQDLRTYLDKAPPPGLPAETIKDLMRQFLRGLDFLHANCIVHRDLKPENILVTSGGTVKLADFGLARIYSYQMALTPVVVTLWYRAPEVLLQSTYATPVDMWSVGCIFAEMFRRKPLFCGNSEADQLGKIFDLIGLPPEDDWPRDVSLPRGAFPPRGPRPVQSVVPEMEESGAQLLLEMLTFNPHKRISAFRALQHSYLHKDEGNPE
Chain of CDK4 (P24385 whole entry partner): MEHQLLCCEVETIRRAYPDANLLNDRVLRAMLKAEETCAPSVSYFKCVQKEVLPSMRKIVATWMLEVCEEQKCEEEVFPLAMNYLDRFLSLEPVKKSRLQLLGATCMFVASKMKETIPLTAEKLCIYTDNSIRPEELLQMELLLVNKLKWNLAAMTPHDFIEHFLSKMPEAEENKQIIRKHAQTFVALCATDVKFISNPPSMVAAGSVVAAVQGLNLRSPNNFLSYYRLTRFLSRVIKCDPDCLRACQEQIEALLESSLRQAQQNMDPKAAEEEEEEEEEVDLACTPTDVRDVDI
Chain of CDK4 (Q16531 2-1140 limits assumed): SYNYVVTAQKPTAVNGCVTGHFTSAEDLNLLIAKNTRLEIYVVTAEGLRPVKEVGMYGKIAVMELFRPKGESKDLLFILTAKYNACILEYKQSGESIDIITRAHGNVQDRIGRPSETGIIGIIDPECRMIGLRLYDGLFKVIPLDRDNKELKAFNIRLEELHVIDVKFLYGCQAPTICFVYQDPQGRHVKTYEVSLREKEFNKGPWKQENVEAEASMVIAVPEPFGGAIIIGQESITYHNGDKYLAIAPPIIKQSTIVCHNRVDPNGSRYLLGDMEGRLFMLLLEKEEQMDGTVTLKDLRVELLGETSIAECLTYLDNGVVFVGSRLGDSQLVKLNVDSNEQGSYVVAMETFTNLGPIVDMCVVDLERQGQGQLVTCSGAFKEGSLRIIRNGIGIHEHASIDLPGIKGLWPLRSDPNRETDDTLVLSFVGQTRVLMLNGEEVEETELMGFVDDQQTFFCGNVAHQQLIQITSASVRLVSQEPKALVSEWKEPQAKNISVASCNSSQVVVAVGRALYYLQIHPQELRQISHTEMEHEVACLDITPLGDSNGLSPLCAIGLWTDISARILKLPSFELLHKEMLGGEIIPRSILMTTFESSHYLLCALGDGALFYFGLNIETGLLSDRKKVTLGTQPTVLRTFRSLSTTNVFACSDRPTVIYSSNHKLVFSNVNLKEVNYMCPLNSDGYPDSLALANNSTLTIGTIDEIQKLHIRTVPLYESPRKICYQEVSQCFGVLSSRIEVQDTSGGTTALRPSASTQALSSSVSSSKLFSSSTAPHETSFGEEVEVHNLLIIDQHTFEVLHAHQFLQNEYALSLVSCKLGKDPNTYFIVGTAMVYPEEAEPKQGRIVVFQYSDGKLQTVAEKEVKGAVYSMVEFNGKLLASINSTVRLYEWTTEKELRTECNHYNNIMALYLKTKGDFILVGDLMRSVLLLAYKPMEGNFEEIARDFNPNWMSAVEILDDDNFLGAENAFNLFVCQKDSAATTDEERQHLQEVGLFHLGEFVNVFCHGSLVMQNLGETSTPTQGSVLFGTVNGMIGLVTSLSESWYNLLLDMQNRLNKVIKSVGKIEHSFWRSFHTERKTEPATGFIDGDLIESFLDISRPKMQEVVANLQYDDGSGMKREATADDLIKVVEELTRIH
Summary of the method: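 Percentage degradation of Cyclin D1 and CDK4 derived from densitometry of ECL Western blots on lysates of Calu-1 cells. Treatment was 16 h with compound at either 40 nM or 200 nM.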

[4] = system: Calu-1 cells; test: Anti-proliferation (viability) of NSCLC Calu-1 cells, 3 days (Table 7, FIG. 2B); settings: Homo sapiens, 72 h; Calu-1 cells, 3 days, 10-point serial dilution; read-out: GI IC50 in Calu-1
Summary of the method: as §1

| Compound | IC50 [1] [µM] | IC50 [2] [µM] | inhibition at 0.04 µM [3] [%] | inhibition at 0.2 µM [3] [%] | IC50 [4] [µM] |
| --- | --- | --- | --- | --- | --- |
| CNc1ccc(C(=O)Nc2cn(C)c(C3CC3)n2)c(NC2CC3(CC(NC(=O)CN4CCN(c5ccc(Nc6ncc7c(C)c(C(C)=O)c(=O)n(C8CCCC8)c7n6)nc5)CC4)C3)C2)n1 (stereo not shown) [CPD-135, 2-((6-(2-(4-(6-((6-Acetyl-8-cyclopentyl-5-methyl-7-oxo-7,8-dihydropyrido[2,3-d]pyrimidin-2-yl)amino)pyridin-3-yl)piperazin-1-yl)acetamido)spiro[3.3]heptan-2-yl)amino)-N-(2-cyclopropyl-1-methyl-1H-imidazol-4-yl)-6-(methylamino)nicotinamide] | ≥ 0.1 | < 0.05 | 30 to 50 | 50 to 80 | 0.01 to 0.05 |
| CNc1ccc(C(=O)Nc2ccc(N(C)C)nn2)c(NCCCCCNC(=O)CN2CCN(c3ccc(Nc4ncc5c(C)c(C(C)=O)c(=O)n(C6CCCC6)c5n4)nc3)CC2)n1 [CPD-5, 2-((5-(2-(4-(6-((6-acetyl-8-cyclopentyl-5-methyl-7-oxo-7,8-dihydropyrido[2,3-d]pyrimidin-2-yl)amino)pyridin-3-yl)piperazin-1-yl)acetamido)pentyl)amino)-N-(6-(dimethylamino)pyridazin-3-yl)-6-(methylamino)nicotinamide] | ≤ 0.05 | < 0.05 | 50 to 80 | – | ≤ 0.01 |
| CNc1ccc(C(=O)Nc2cccc(C3CC3)n2)c(NC2CC3(C2)CN(C(=O)CCN2CCN(c4ccc(Nc5ncc6c(C)c(C(C)=O)c(=O)n(C7CCCC7)c6n5)nc4)CC2)C3)n1 [CPD-103, 2-((2-(3-(4-(6-((6-Acetyl-8-cyclopentyl-5-methyl-7-oxo-7,8-dihydropyrido[2,3-d]pyrimidin-2-yl)amino)pyridin-3-yl)piperazin-1-yl)propanoyl)-2-azaspiro[3.3]heptan-6-yl)amino)-N-(6-cyclopropylpyridin-2-yl)-6-(methylamino)nicotinamide] | 0.05 to 0.1 | > 0.1 | > 80 | > 80 | ≤ 0.01 |
| [2H]C([2H])([2H])Nc1ccc(C(=O)Nc2ccc(N(C)C)nn2)c(NCCCCCNC(=O)CN2CCN(c3ccc(Nc4ncc5c(C)c(C(C)=O)c(=O)n(C6CCCC6)c5n4)nc3)CC2)n1 [CPD-66, 2-((5-(2-(4-(6-((6-Acetyl-8-cyclopentyl-5-methyl-7-oxo-7,8-dihydropyrido[2,3-d]pyrimidin-2-yl)amino)pyridin-3-yl)piperazin-1-yl)acetamido)pentyl)amino)-N-(6-(dimethylamino)pyridazin-3-yl)-6-((methyl-d3)amino)nicotinamide] | 0.05 to 0.1 | > 0.1 | 50 to 80 | 50 to 80 | ≤ 0.01 |
| CCc1ccc(C(=O)Nc2ccc(N(C)C)nn2)c(NCCCCCNC(=O)CN2CCN(c3ccc(Nc4ncc5c(C)c(C(C)=O)c(=O)n(C6CCCC6)c5n4)nc3)CC2)n1 [CPD-54, 2-((5-(2-(4-(6-((6-Acetyl-8-cyclopentyl-5-methyl-7-oxo-7,8-dihydropyrido[2,3-d]pyrimidin-2-yl)amino)pyridin-3-yl)piperazin-1-yl)acetamido)pentyl)amino)-N-(6-(dimethylamino)pyridazin-3-yl)-6-ethylnicotinamide] | 0.05 to 0.1 | < 0.05 | 50 to 80 | 50 to 80 | ≤ 0.01 |
| CC(=O)c1c(C)c2cnc(Nc3ccc(N4CCN(CC(=O)NCCCCCCCNc5nc(C)ccc5C(=O)Nc5ccc(N(C)C)nn5)CC4)cn3)nc2n(C2CCCC2)c1=O [CPD-8, 2-((7-(2-(4-(6-((6-acetyl-8-cyclopentyl-5-methyl-7-oxo-7,8-dihydropyrido[2,3-d]pyrimidin-2-yl)amino)pyridin-3-yl)piperazin-1-yl)acetamido)heptyl)amino)-N-(6-(dimethylamino)pyridazin-3-yl)-6-methylnicotinamide] | ≤ 0.05 | < 0.05 | 50 to 80 | > 80 | ≤ 0.01 |
| CNc1ccc(C(=O)Nc2ccc(N(C)C)nn2)c(NCCCCCNCCN2CCN(c3ccc(Nc4ncc5c(C)c(C(C)=O)c(=O)n(C6CCCC6)c5n4)nc3)CC2)n1 [CPD-21, 2-((5-((2-(4-(6-((6-Acetyl-8-cyclopentyl-5-methyl-7-oxo-7,8-dihydropyrido[2,3-d]pyrimidin-2-yl)amino)pyridin-3-yl)piperazin-1-yl)ethyl)amino)pentyl)amino)-N-(6-(dimethylamino)pyridazin-3-yl)-6-(methylamino)nicotinamide] | 0.05 to 0.1 | > 0.1 | 50 to 80 | – | 0.01 to 0.05 |
| CNc1ccc(C(=O)Nc2ccc(N(C)C)nn2)c(NC2CC3(C2)CN(C(=O)CCN2CCN(c4ccc(Nc5ncc6c(C)c(C(C)=O)c(=O)n(C7CCCC7)c6n5)nc4)CC2)C3)n1 [CPD-62, 2-((2-(3-(4-(6-((6-Acetyl-8-cyclopentyl-5-methyl-7-oxo-7,8-dihydropyrido[2,3-d]pyrimidin-2-yl)amino)pyridin-3-yl)piperazin-1-yl)propanoyl)-2-azaspiro[3.3]heptan-6-yl)amino)-N-(6-(dimethylamino)pyridazin-3-yl)-6-(methylamino)nicotinamide] | ≤ 0.05 | < 0.05 | > 80 | > 80 | ≤ 0.01 |
| CNc1ccc(C(=O)Nc2cccc(C3CC3)n2)c(NCCCCCNC(=O)CN2CCN(c3ccc(Nc4ncc5c(C)c(C(C)=O)c(=O)n(C6CCCC6)c5n4)nc3)CC2)n1 [CPD-51, 2-((5-(2-(4-(6-((6-Acetyl-8-cyclopentyl-5-methyl-7-oxo-7,8-dihydropyrido[2,3-d]pyrimidin-2-yl)amino)pyridin-3-yl)piperazin-1-yl)acetamido)pentyl)amino)-N-(6-cyclopropylpyridin-2-yl)-6-(methylamino)nicotinamide] | 0.05 to 0.1 | 0.05 to 0.1 | 50 to 80 | 50 to 80 | ≤ 0.01 |
| CNc1ccc(C(=O)Nc2ccc(N(C)C)nn2)c(NCCCCC(C)NC(=O)CN2CCN(c3ccc(Nc4ncc5c(C)c(C(C)=O)c(=O)n(C6CCCC6)c5n4)nc3)CC2)n1 (stereo not shown) [CPD-22, 2-((5-(2-(4-(6-((6-Acetyl-8-cyclopentyl-5-methyl-7-oxo-7,8-dihydropyrido[2,3-d]pyrimidin-2-yl)amino)pyridin-3-yl)piperazin-1-yl)acetamido)hexyl)amino)-N-(6-(dimethylamino)pyridazin-3-yl)-6-(methylamino)nicotinamide] | ≤ 0.05 | 0.05 to 0.1 | > 80 | > 80 | ≤ 0.01 |
| CNc1ccc(C(=O)Nc2ccc(N(C)C)nn2)c(NCCCCCNC(=O)C(C)N2CCN(c3ccc(Nc4ncc5c(C)c(C(C)=O)c(=O)n(C6CCCC6)c5n4)nc3)CC2)n1 (stereo not shown) [CPD-14, 2-((5-(2-(4-(6-((6-Acetyl-8-cyclopentyl-5-methyl-7-oxo-7,8-dihydropyrido[2,3-d]pyrimidin-2-yl)amino)pyridin-3-yl)piperazin-1-yl)propanamido)pentyl)amino)-N-(6-(dimethylamino)pyridazin-3-yl)-6-(methylamino)nicotinamide] | 0.05 to 0.1 | < 0.05 | 50 to 80 | 50 to 80 | ≤ 0.01 |
| CNc1ccc(C(=O)Nc2ccc(N(C)C)nn2)c(NC2CC(CC(=O)NCCN3CCN(c4ccc(Nc5ncc6c(C)c(C(C)=O)c(=O)n(C7CCCC7)c6n5)nc4)CC3)C2)n1 (stereo not shown) [CPD-101, 2-((3-(2-((2-(4-(6-((6-Acetyl-8-cyclopentyl-5-methyl-7-oxo-7,8-dihydropyrido[2,3-d]pyrimidin-2-yl)amino)pyridin-3-yl)piperazin-1-yl)ethyl)amino)-2-oxoethyl)cyclobutyl)amino)-N-(6-(dimethylamino)pyridazin-3-yl)-6-(methylamino)nicotinamide] | 0.05 to 0.1 | < 0.05 | 50 to 80 | > 80 | ≤ 0.01 |
| CC(=O)c1c(C)c2cnc(Nc3ccc(N4CCN(CC(=O)NCCCCCNc5nc(C6CC6)ccc5C(=O)Nc5ccc(N(C)C)nn5)CC4)cn3)nc2n(C2CCCC2)c1=O [CPD-27, 2-((5-(2-(4-(6-((6-Acetyl-8-cyclopentyl-5-methyl-7-oxo-7,8-dihydropyrido[2,3-d]pyrimidin-2-yl)amino)pyridin-3-yl)piperazin-1-yl)acetamido)pentyl)amino)-6-cyclopropyl-N-(6-(dimethylamino)pyridazin-3-yl)nicotinamide] | 0.05 to 0.1 | 0.05 to 0.1 | > 80 | > 80 | ≤ 0.01 |
| CNc1ccc(C(=O)Nc2ccc(N(C)C)nn2)c(NC[C@H]2CC[C@H](NC(=O)CN3CCN(c4ccc(Nc5ncc6c(C)c(C(C)=O)c(=O)n(C7CCCC7)c6n5)nc4)CC3)CC2)n1 [CPD-73] | 0.05 to 0.1 | 0.05 to 0.1 | 50 to 80 | 50 to 80 | 0.01 to 0.05 |
| CC(=O)c1c(C)c2cnc(Nc3ccc(N4CCN(CC(=O)NCCCCCNc5nc(C(C)C)ccc5C(=O)Nc5ccc(N(C)C)nn5)CC4)cn3)nc2n(C2CCCC2)c1=O [CPD-63, 2-((5-(2-(4-(6-((6-Acetyl-8-cyclopentyl-5-methyl-7-oxo-7,8-dihydropyrido[2,3-d]pyrimidin-2-yl)amino)pyridin-3-yl)piperazin-1-yl)acetamido)pentyl)amino)-N-(6-(dimethylamino)pyridazin-3-yl)-6-isopropylnicotinamide] | ≤ 0.05 | < 0.05 | > 80 | > 80 | ≤ 0.01 |
